Laboratory results from patent publication US7601501B2, “Controlling osteogenesis by inhibition of osteogenic suppressors” (The Scripps Research Institute, priority 2006, dated 2009).
“Also recorded” adds a separate entry of the source. Strand notation (5' to 3'): a small letter for the sugar, then the base; units joined by * are phosphorothioate-linked, units joined directly phosphodiester-linked; [ ] holds rarer units or linkages, { } end groups; capitals alone tell only the bases. d = 2'-deoxy (DNA)

Experiments:
[1] = system: CREB; assay: CRE decoy transfection followed by osteogenic or adipogenic induction media; assay type: cell-based, human; settings: 90 nM oligonucleotide, vs CRE mismatch control; for adipogenic differentiation after decoy transfection: adipogenic induction media
Procedure: (§1) The human mesenchymal stem cells (hMSCs, PT-2501) were purchased from Cambrex Inc. and cultured as instructed by the supplier. Cells were expanded to passage 5 before being used for siRNA library screen. Briefly, diluted Xtreme-siRNA transfection reagent (cat# 4 476 115 00, Roche) (0.12 μl Xtreme in 14 μl DMEM) was mixed with pre-spotted siRNA (14 ng/well) in each well of 384-well plates for one hour. Cells (4000/well) in 60 μl media (no antibiotics) were then added using automated dispenser (Multidrop 384, Thermo LabSystems) (siRNA final concentration at around 15 nM). Transfection was allowed to continue for 8 hours before first media renewal. After 7 days of culture, cells were stained for alkaline phosphatase (ALP) activity (cat# 86R-1KT, Sigma). Post-screen assays were done in 96-well plates and siRNA was transfected at the concentration of 30 nM at the cell density of 8000 cells/well. CRE decoy oligonucleotide and control oligonucleotide (phosphorothioate bond modification on all nucleotides) (Park, Y. G. et al., J Biol Chem 274:1573-1580 (1999)) were transfected into cells similarly as siRNA using Xtreme-siRNA transfection reagent, except that the final DNA concentration was 90 nM. Control siRNA (siCon) used in the screen contains a pool of 50 scrambled sequences that have at least 4 mismatches to known human transcripts and ESTs, and at least 2-3 mismatches to the whole human genome. siCon used in target characterization after primary screen was purchased from Dharmacon (D-001210-01-05), which was bioinformatically designed to have >=4 mismatches with known human and mouse genes. siTOX was also purchased from Dharmacon (D-001500-01-05).
To find out whether CREB (cAMP Responding Element Binding protein), a common downstream effector of cAMP signaling pathway, is involved in mediating cAMP signaling controlled differentiation of hMSCs, we checked the expression level of the active form of CREB proteins in cells 3 days after siP2RY11, siADK, siGNAS, siSLC12a2 or siCon transfection. […]

[2] = system: human mesenchymal stem cells (hMSCs); assay: Oil Red O staining, adipogenic differentiation with adipogenic inducing media; assay type: cell-based
Procedure: Cells were rinsed with PBS twice, fixed in 10% formalin solution for 20 minutes, rinsed with PBS twice and dH2O once, washed with propylene glycol for 5 minutes, and stained with Oil red in propylene glycol (I2722A, Newcomer Supply) for 30 minutes. Cells were then washed with 85% propylene glycol for 5 minutes, rinsed with dH2O 3 times and preserved in 50% glycerol.
Bone cell maturation is accompanied by extracellular matrix (ECM) mineralization (John Bilezikian et al., Principles of bone biology, Vol 1, 2nd edn: Academic Press) (2002)). To examine whether the osteogenic differentiation of hMSCs induced by the hit siRNAs can further proceed to the maturation stage, hit siRNA treated cells were cultured for 20 days. […] These observations are consistent with the conclusion that the targeted genes of the ten effective hit siRNAs not only play inhibitory roles in osteogenic specification of hMSCs, but also in bone cell maturation. […] Furthermore, in osteoporotic patients, the number of adipocytes was increased in the marrow, implying a change of cell fate disposition from osteoblast lineage to adipocyte lineage (Justesen, J. et al., Biogerontology 2:165-171 (2001); Meunier, P. et al., Clin Orthop Relat Res 80:147-154 (1971)). […]

[3] = system: human mesenchymal stem cells (hMSCs); assay: Compound treatment: OS-induced osteogenic differentiation of hMSCs (ALP / alizarin red staining); assay type: cell-based; settings: compound combined with OS treatment; ALP and/or alizarin red staining
Procedure: 8-CPT-cAMP, Na (cat# 116812), 5-Iodotubercidin (cat# 407900), Prostaglandin E2 (PGE2, cat# 538904), SB 202190 (cat# 559388) and U0126 (cat# 662005) were purchased from Calbiochem; N6,2′-O-Dibutyryl-cAMP (cat# D0260-5MG), forskolin (cat# F6886), ascorbic acid 2-phosphate (cat# 49752-10G), β-glycerophosphate (G-6251), dexamethasone (D8893), 3-isobutyl-1-methylxanthine (IBMX, I5879) and Insulin (I 9278) were purchased from Sigma/Aldrich/Fluka.
Since the targeted genes are all positively involved in intracellular cAMP signaling, we tested the effect of two compounds of opposing function on cAMP production on osteogenic differentiation of hMSCs, ADK inhibitor 5-iodotubercidin and ADCY activator forskolin (Cottam, H. B. et al., J Med Chem 36:3424-3430 (1993); de Souza, N. J. et al., Med Res Rev 3:201-219 (1983)). […] ATP has been shown as a ligand for P2RY11 receptor (Communi et al., 1997). […] The present observations are consistent with the conclusion that […] in hMSCs, and vice versa.

[4] = system: human mesenchymal stem cells (hMSCs); assay: Alizarin red staining for calcium phosphate deposits (ECM mineralization, bone cell maturation); assay type: cell-based; settings: OS started three days after siRNA transfection and continued for 9 days
Procedure: Cells were rinsed with PBS twice, stained in alizarin red solution (cat# vw3611-2, VWR) for 8 minutes at room temperature, washed with PBS again, fixed in 10% formalin solution (cat# HT-5014, Sigma) for 20 minutes, then rinsed with water and air dried.
Bone cell maturation is accompanied by extracellular matrix (ECM) mineralization (John Bilezikian et al., Principles of bone biology, Vol 1, 2nd edn: Academic Press) (2002)). […] […] These observations are consistent with the conclusion that the targeted genes of the ten effective hit siRNAs not only play inhibitory roles in osteogenic specification of hMSCs, but also in bone cell maturation. […] Furthermore, in osteoporotic patients, the number of adipocytes was increased in the marrow, implying a change of cell fate disposition from osteoblast lineage to adipocyte lineage (Justesen, J. et al., Biogerontology 2:165-171 (2001); Meunier, P. et al., Clin Orthop Relat Res 80:147-154 (1971)). We therefore examined the effect of our hit siRNAs on adipogenic differentiation of hMSCs by combined treatment with an adipogenic inducing cocktail (100 μg/ml IBMX, 1 μM DEX and 10 μg/ml insulin).

[5] = system: BMP-2, PLZF, TAZ; assay: RT-PCR of positive regulators of osteogenesis; assay type: cell-based, human; settings: samples collected on day 7 or day 12 after siRNA transfection
Procedure: Total RNA from each sample was prepared from around 5×10(4) cells using RNAeasy mini kit from Qiagen and further treated with Turbo DNA-Free (cat# 1907, Ambion) to prevent DNA contamination. Reverse transcription was carried out using SuperScript First-Strand Synthesis System for RT-PCR (cat# 11904-018, Invitrogen) or Qiagen OneStep RT-PCR kit (cat# 210210) as instructed. PCR primers used were as follows: […]
To test their roles in our siRNA induced osteogenic differentiation, RT-PCR was performed on these genes. […] In addition, MAPK signaling pathways have been shown activated in the OS treated hMSCs, and inhibition of these pathways suppresses OS induced osteogenesis (FIG. 9b) (Jaiswal, R. K. et al., J Biol Chem 275:9645-9652 (2000)).

[6] = system: human mesenchymal stem cells (hMSCs); assay: Alkaline phosphatase (ALP) activity staining of siRNA-transfected hMSCs (osteogenic differentiation screen); assay type: cell-based; settings: for ALP activity induced by the hit siRNAs or OS, on co-transfection: co-transfected with each hit siRNA, compared to siCon co-transfection
Procedure: as §1
Fifty five hits that gave rise to a significant increase of ALP activity on day 7 after siRNA transfection in hMSCs were identified and confirmed (FIG. 2a & Table 1).

[7] = system: ERK1/2 and p38; assay: Western blot of phosphorylated ERK1/2 and p38; assay type: cell-based, human; settings: 72 hours after transfection
Procedure: Cell lyses buffer contains 20 mM Tris pH8.0, 1 mM EDTA, 150 mM NaCl and 0.5% NP-40, and before usage, protease inhibitor cocktail (Cat# p8340, Sigma, 1:100 dilution) and phosphatase inhibitor cocktail 2 (Cat# p5726, sigma, 1:100 dilution) were added. Proteins (60 μg/well) were separated in 12% Novex Tris-Glycine gel (Cat# EC6008 box, Invitrogen) and transferred to Nitrocellulose membrane (Cat# LC2001, Invitrogen) using the XCell II blot module system (Cat# EI9051, Invitrogen). The membrane was blocked in 5% milk/PBST for 1 hour at room temperature, incubated over night at 4 degree with primary antibody, washed 3 times with PBST (0.05% Tween 20 in PBS), followed by one hour incubation with secondary antibody in 5% milk/PBST and 3 times wash with PBST at room temperature. For antibody against pCREB however, PBST was substituted with PBS in all steps except for the last one. Antibody-bound proteins were detected utilizing ECL Western blotting detection reagent (Amersham Biosciences).
Anti-phospho-CREB was purchased from Upstate Biotechnology (cat# 06-519); Anti-phospho-p38 was purchased from Cell signaling technology (cat# 9910).
We therefore examined the activation status of ERK1/2 and p38 in the siDUSP6 treated hMSCs along with other siRNA treated samples by western blot using antibodies against the phosphorylated form of the protein at 72 hours after transfection (FIG. 9c).

## 5′-TGACGTCATGACGTCATGACGTCA-3′ (DNA dT*dG*dA*dC*dG*dT*dC*dA*dT*dG*dA*dC*dG*dT*dC*dA*dT*dG*dA*dC*dG*dT*dC*dA) [CRE decoy, synthetic 24-mer CRE decoy palindrome oligonucleotide, phosphorothioate bond modification on all nucleotides]
[1]
  adipogenic differentiation after decoy transfection: inhibited cells from undergoing adipogenic differentiation
[1]; listed as CRE (CREB responding element) decoy
  adipogenic differentiation after decoy transfection: less responsive
[1]; osteogenic induction media (OS), listed as CRE (CREB responding element) decoy
  osteogenic differentiation after decoy transfection: less responsive

## Nc1ncnc2c1c(I)cn2[C@@H]1O[C@H](CO)[C@@H](O)[C@H]1O [5-iodotubercidin]
[2]; adipogenic inducing media plus compound
  adipogenic differentiation of hMSCs (oil red o staining), compound: inhibited the adipogenic differentiation of hMSCs in a dose dependent manner
[3]
  osteogenic effect of the OS media on hMSCs: significantly enhanced; also recorded: enhanced the osteogenic effect of the OS media

## CAGAUGCAUCGACCAAAAC (siRNA; listed as RNA, chemistry not fully specified) [siMJD, siRNA targeting Machado-Joseph disease (ataxin 3)]
[4]
  intensity of alizarin red staining (bone cell maturation), 3+9OS: no significant effect
[5]
  expression of PLZF (RT-PCR): detected; also recorded: induced

## CGGUCACGGAUGACGACUA (listed as RNA, chemistry not given here) [siCOMP, siRNA targeting cartilage oligomeric matrix protein]
[6]; 9 days after siRNA transfection
  osteogenic differentiation (alkaline phosphatase activity): induces osteogenic differentiation
[2]; Adipo on the third day after siRNA transfection, continued for 12 days
  adipogenesis induced by adipogenic inducing media (Oil Red O): enhances adipogenesis

## CUGUGGUGUCUUGGUACAU (listed as RNA, chemistry not given here) [siDUSP6, siRNA targeting dual specificity phosphatase 6]
[4]
  intensity of alizarin red staining (bone cell maturation), 3+9OS: modest enhancement
[7]
  phosphorylated (active) p38 level (Western blot): increased level; also recorded: up regulated

## UAGUAGAGAUAUGGAGUGCtg (antisense); GCACUCCAUAUCUCUACUAtt (sense) (chain 1 UAGUAGAGAUAUGGAGUGCTG; chain 2 GCACUCCAUAUCUCUACUATT; chemistry not given here) [CBFA1 siRNA, CBFA 1-specific siRNA]
[6]
  ALP activity induced by the hit siRNAs or OS, on co-transfection: reduced the level of ALP activity
[6]; listed as siCbfa 1
  ALP activity induced by the hit siRNAs or OS, on co-transfection: reduced
